US20120171123A1, “USES AND COMPOSITIONS FOR TREATMENT OF RHEUMATOID ARTHRITIS” (priority 2006, published 2012)

Test system: MTX-naïve adult patients with active, early RA (<3 years)
Assay: Study J: radiographic progression (TSS, joint erosion, joint space narrowing)
Type: in vivo, human
Set-up: key to mean change from baseline in TSS / Mean change in TSS / TSS after 2 years / change in TSS over 2 years / mean change in TSS from baseline / Mean ΔTSS at 1 year / Mean ΔTSS Yr 1-Yr 2: modified total Sharp score, 0-398 scale
Conditions: for Annualized rate of radiographic progression (ΔTSS): all pts in treatment arm
Description: The co-primary endpoints, comparing MTX alone with the combination at 1 year, were the ACR50 response (using non-responder imputation), and inhibition of radiographic progression, as measured by change in total Sharp score (TSS). In this study, the term “Major Clinical Response” (MCR) meant a continuous ACR70 response for 6 or more consecutive months.
At 1 and 2 years, the American College of Rheumatology (ACR) responses (ACR20, ACR50, and ACR70), the Disease Activity Score 28 (DAS28), and the change (Δ) in Total Sharp Score (TSS) were determined for all patients. Results were analyzed for the intention-to-treat (ITT) population using imputation for missing data. Clinical remission was defined as DAS28<2.6. The mean ΔTSS values at 1 year and 2 years (N=791) were determined for patients in each ACR response category (ACR20/50/70) and for patients with DAS28<2.6
Radiographic progression was measured by Total Sharp Score (TSS) at baseline, and 1 and 2 years in the intention to treat population (ITT) using imputation for missing data. In this analysis, patients were divided into 1 of 2 categories by disease duration at baseline: <6 months (Group 1) or 6 months to 3 years (Group 2). Mean changes in TSS were reported for both groups by each of the 3 treatment arms from baseline to Year 1 and from Year 1 to Year 2.
Radiographic progression was assessed by mean change from baseline in Total Sharp Score (TSS) and stratified into those with (ΔTSS>0.5) and without (Δ≦TSS 0.5). Patients were categorized as either having radiographic progression at 1 year (ΔTSS>0.5) or not (Δ≦TSS 0.5). A logistic regression model was used to identify predictors of radiographic disease progression by testing several baseline characteristics, including age, disease duration, RF status, TJC, SJC, joint erosions, and CRP. For analyses of CRP, patients were categorized as normal (CRP≦0.8 mg/dL) or abnormal (CRP>0.8 mg/dL).
Mean change from baseline in Total Sharp Score (TSS) was measured at 6 months, 1 year, and 2 years in the intention-to-treat (ITT) population using imputation for missing data. Patients were classified as having radiographic progression (mean change in TSS>0.5) or without radiographic progression (ΔTSS≦0.5). Patients with inadequate data were excluded from this analysis.
Patients in the Ada+MTX and the MTX arms were classified according to level of clinical response (non-responder (<ACR20), ACR20, ACR50, or ACR70) and radiographic progression (Yes or No (ΔTSS≦0.5)). The ΔTSS was analyzed overall, and for ACR subgroups. This included determination of mean ΔTSS and probability plots.
Study J was a 2-year, double-blind, active comparator-controlled, Phase III study. […] For each patient, radiographs of hands and feet were taken at baseline, 6 months, 1 year and 2 years and evaluated for joint erosions (JE) and joint space narrowing (JSN) by 2 blinded radiologists. Changes from baseline in the modified total Sharp score (TSS, 0-398) were calculated for patients in each treatment arm. Cumulative probability plots were generated by estimating the probability of exceeding a given change in TSS. For each treatment, we calculated the percentages of patients whose ΔTSS exceeded specified thresholds, and the probability of having a given ΔTSS (using cumulative probability plots). For each of 4 cumulative probability ranges, 0-10%, 10-50%, 50-90% and 90-100% (higher numbered ranges=greater ΔTSS), mean ΔTSS values were calculated. In previous reports, Study J radiographic analyses employed linear imputation. In the present analysis, only observed data were employed, with no imputation.

[1] = Group 1, BL disease duration <6 mos (n=448)
[2] = Group 2, BL disease duration 6 mos to 3 yrs (n=333)
[3] = disease duration 6 months to 3 years
[4] = disease duration 6 months-3 years (n=333)

`CN(Cc1cnc2nc(N)nc(N)c2n1)c1ccc(C(=O)N[C@@H](CCC(=O)O)C(=O)O)cc1` [mtx alone, methotrexate] was tested, and the “Annualized rate of radiographic progression (ΔTSS)” value (from here on “Annualized rate … (ΔTSS)”) (0-6 mos) was 7.0 Sharp Score Units per Year, the “Annualized rate … (ΔTSS)” value (1-2 yrs) was 4.7 Sharp Score Units per Year and the “patients with ΔTSS≦0.5 among those achieving DAS28 remission” value (1 year) was 47%. The “Mean change in TSS” value (1 year, ACR20 responders) was 3.9, the “mean change in JE score” value (1 year, ACR20 responders) was 2.0 and the “mean change in JSN” value (1 year, ACR20 responders) was 1.4. The “Mean change in TSS” value (1 year, ACR50 responders) was 3.2, the “mean change in JE score” value (1 year, ACR50 responders) was 2.2 and the “mean change in JSN” value (1 year, ACR50 responders) was 1.0. The “Mean change in TSS” value (1 year, ACR70 responders) was 2.7, the “mean change in JE score” value (1 year, ACR70 responders) was 1.6 and the “mean change in JSN” value (1 year, ACR70 responders) was 1.1. The “patients with no radiographic progression” value (1 year, abnormal baseline CRP normalized at 1 year) was 33%, the “patients with no radiographic progression” value (1 year, elevated CRP at both baseline and 1 year) was 31% and the “patients with no disease progression (ΔTSS≦0.5)” value (1 year, patients with CRP and X-rays available) was 38%. For the same compound, the “Mean change in TSS” value (1 year, patients with DAS28<2.6) was 1.9, the “Mean change in TSS” value (1 year, patients with DAS28<2.6, listed as MTX alone) was 2.8 and the “% of patients with >4 change TSS” value (2 years) was 41.3%. For the same compound, the “% of patients with >10 change TSS” value (2 years) was 23.3%, the “% of patients with >20 change TSS” value (2 years) was 7% and the “patients with no radiographic progression (change in TSS ≦0.5)” value (2 years) was 34%. For the same compound, the “patients with ΔTSS≦0.5 among those achieving DAS28 remission” value (2 years) was 47%, the “Mean change TSS in radiographic progressors (ΔTSS > 0.5)” value (“Mean change TSS … (ΔTSS > 0.5)” for short) (2 years, ACR20 responders) was 9.4 and the “mean change in JE score” value (2 years, ACR20 responders) was 3.6. The “mean change in JSN” value (2 years, ACR20 responders) was 2.3, the “mean change in TSS from baseline” value (2 years, ACR20 responders) was 5.5 and the “mean change in TSS from baseline” value (2 years, ACR20 responders, listed as MTX alone) was 5.8. For the same compound, the “Mean change TSS … (ΔTSS > 0.5)” value (2 years, ACR50 responders) was 8.5, the “mean change in JE score” value (2 years, ACR50 responders) was 3.0 and the “mean change in JSN” value (2 years, ACR50 responders) was 1.8. For the same compound, the “mean change in TSS from baseline” value (2 years, ACR50 responders) was 4.9, the “Mean change TSS … (ΔTSS > 0.5)” value (2 years, ACR70 responders) was 7.5 and the “mean change in JE score” value (2 years, ACR70 responders) was 2.6. The “mean change in JSN” value (2 years, ACR70 responders) was 1.4, the “mean change in TSS from baseline” value (2 years, ACR70 responders) was 4.1 and the “Mean change in TSS” value (2 years, patients with DAS28<2.6) was 2.8. The “Mean change in TSS” value (2 years, patients with DAS28<2.6, listed as MTX alone) was 1.9, the “Frequency of radiographic progression (ΔTSS > 0.5), % of patients” value (“Frequency … (ΔTSS > 0.5), % of patients” below) (2 years, ACR20 responders, observed data) was 62% and the “Frequency … (ΔTSS > 0.5), % of patients” value (2 years, ACR50 responders, observed data) was 60%. The “Frequency … (ΔTSS > 0.5), % of patients” value (2 years, ACR70 responders, observed data) was 57%, the “Mean change TSS … (ΔTSS > 0.5)” value (2 years, Non-responder (<ACR20)) was 15.5 and the “Frequency … (ΔTSS > 0.5), % of patients” value (2 years, Non-responder (<ACR20), observed data) was 75%. The “Mean change in TSS” value (2 years, all points (0-100), observed data) was 6.4, the “Mean change in TSS” value (2 years, cumulative probability range 0-10) was −3.9 and the “Mean change in TSS” value (2 years, cumulative probability range 10-50) was 0.5. For the same compound, the “Mean change in TSS” value (2 years, cumulative probability range 50-90) was 7.6, the “Mean change in TSS” value (2 years, cumulative probability range 90-100) was 31.4 and the “% of patients with >4 change TSS” value (6 months) was 0%. The “% of patients with >10 change TSS” value (6 months) was 1.7%, the “% of patients with >20 change TSS” value (6 months) was 2.3% and the “patients with no radiographic progression” value (6 months) was 51%. The “Mean change TSS … (ΔTSS > 0.5)” value (6 months, ACR20 responders) was 4.8, the “Frequency … (ΔTSS > 0.5), % of patients” value (6 months, ACR20 responders, observed data) was 55% and the “Mean change TSS … (ΔTSS > 0.5)” value (6 months, ACR50 responders) was 3.8. For the same compound, the “Frequency … (ΔTSS > 0.5), % of patients” value (6 months, ACR50 responders, observed data) was 51%, the “Mean change TSS … (ΔTSS > 0.5)” value (6 months, ACR70 responders) was 3.4 and the “Frequency … (ΔTSS > 0.5), % of patients” value (6 months, ACR70 responders, observed data) was 49%. The “Mean change TSS … (ΔTSS > 0.5)” value (6 months, Non-responder (<ACR20)) was 10.8, the “Frequency … (ΔTSS > 0.5), % of patients” value (6 months, Non-responder (<ACR20), observed data) was 59% and the “Mean change in TSS” value (6 months, all points (0-100), observed data) was 3.4. For the same compound, the “Mean change in TSS” value (6 months, cumulative probability range 0-10) was −2.0, the “Mean change in TSS” value (6 months, cumulative probability range 10-50) was 0.2 and the “Mean change in TSS” value (6 months, cumulative probability range 50-90) was 4.4. For the same compound, the “Mean change in TSS” value (6 months, cumulative probability range 90-100) was 16.5, the “Annualized rate … (ΔTSS)” value (6 mos-1 yr) was 4.4 Sharp Score Units per Year and the “Mean change in TSS” value (26 weeks, observed data) was 3.4. The “Mean change in TSS” value (52 weeks, observed data) was 5.2, the “Mean change in TSS” value (104 weeks, observed data) was 6.4 and the “Patients with No Radiographic Progression at 1 Year” value (CRP (BL and Year 1) Abnormal to Normal) was 33%. The “Patients with No Radiographic Progression at 1 Year” value (CRP (BL and Year 1) Always Normal) was 86%, the “Patients with No Radiographic Progression at 1 Year” value (CRP (BL and Year 1) Never Normal) was 31% and the “Mean ΔTSS Yr 1-Yr 2” value [1] was 5.8. The “Mean ΔTSS at 1 year” value [1] was 7.4, the “Mean ΔTSS Yr 1-Yr 2” value [2] was 3.4 and the “Mean ΔTSS at 1 year” value [2] was 3.8. The “No Progression at Month 6, %” value (Study J) was 51%, the “No Progression at Month 6, patients/total” value (Study J) was 129/252 and the “No Progression at Month 6 and Year 2, %” value (Study J) was 61%. The “No Progression at Month 6 and Year 2, patients/Month-6 non-progressors” value (Study J) was 79/129, the “Yr-2 Non-P, %” value (among Mo-6 Non-Progressors) was 61% and the “Yr-2 Non-P, number of patients” value (among Mo-6 Non-Progressors) was 79. For the same compound, the “Yr-2 Prog, %” value (among Mo-6 Non-Progressors) was 39%, the “Yr-2 Prog, number of patients” value (among Mo-6 Non-Progressors) was 50 and the “Yr-2 Non-P, %” value (among Mo-6 Progressors) was 6%. For the same compound, the “Yr-2 Non-P, number of patients” value (among Mo-6 Progressors) was 7, the “Yr-2 Prog, %” value (among Mo-6 Progressors) was 94% and the “Yr-2 Prog, number of patients” value (among Mo-6 Progressors) was 116. The “TSS after 2 years” value [3] was 32.2, the “change in TSS over 2 years” value [3] was 7.2 and the “mean change TSS during year 1” value [4] was 3.8 sharp score units. For the same compound, the “mean change TSS during year 2” value [4] was 3.4 sharp score units, the “TSS after 2 years” value (disease duration <6 months) was 32.4 and the “change in TSS over 2 years” value (disease duration <6 months) was 13.2. For the same compound, the “mean change TSS during year 1” value (disease duration <6 months) was 7.4 sharp score units, the “mean change TSS during year 2” value (disease duration <6 months) was 5.8 sharp score units and the “rate of change in TSS in ACR20 responders, relative to combination therapy” value (in vivo) was 7 times. For the same compound, the “Mo-6 Non-Progressors, % of arm” value (no progression = ΔTSS≦0.5) was 51%, the “Mo-6 Non-Progressors, number of patients” value (no progression = ΔTSS≦0.5) was 129 and the “patients with no progression at year 2” value (no progression at month 6) was 61%. For the same compound, the “Mo-6 Progressors, % of arm” value (progression = ΔTSS>0.5) was 49%, the “Mo-6 Progressors, number of patients” value (progression = ΔTSS>0.5) was 123 and the “patients with no progression at year 2” value (progression at month 6) was 6%. For the same compound, the “mean change from baseline in TSS” value (week 26, ITT with imputation) was 3.5, the “mean change from baseline in TSS” value (week 52 (1 year), ITT with imputation) was 5.7 and the “mean change from baseline in TSS” value (week 104 (2 years), ITT with imputation) was 10.4.
